Reference: US20100065444A1, “PACK CONTAINING SOFT CAPSULES” (priority 2007, published 2010)

Experiments:
Type in all cases: physicochemical
[1] = Stability of multivitamin soft capsules in PVC/PVDC-aluminium blister, 40° C./75% RH
Description: (§1) Multivitamin soft capsules (active-compound composition and capsule shell as described below) are introduced individually into a thermoformed cavity film made from PVC 250 μm+40 g/m^2 of PVDC and heat-sealed with aluminium foil (20 μm) and into a resealable container in/on the inside wall(s) of which at least one channel former is embedded, at least over part of the area, together with at least one absorbent (type: M-3006-16 Activ-Vial) in the inside walls of which a molecular sieve having a capacity of 1.92 g is embedded.
(§2) The blisters and containers containing the multivitamin soft capsules are stored at 40° C. and 75% relative humidity (RH), removed from storage after predetermined times, assessed visually with respect to their appearance and investigated analytically with respect to the amounts of active compound present. The results are compiled in Tables 1 and 2.

[2] = Stability of multivitamin soft capsules in container with channel former and absorbent embedded in the inside walls, 40° C./75% RH
Description: as §1, §2

[3] = Stability of multivitamin soft capsules in container with channel former and absorbent embedded in the inside walls, 30° C./65% RH
Protocol: as §1, with “introduced” for “introduced individually into a thermoformed cavity film made from PVC 250 μm+40 g/m^2 of PVDC and heat-sealed with aluminium foil (20 μm) and”
The multivitamin soft capsules are stored at 30° C. and 65% relative humidity (RH), removed from storage after predetermined times, assessed visually with respect to their appearance and investigated analytically with respect to the amounts of active compound present.

[4] = Multivitamin soft capsule batch 9018401, 3 months
[5] = Multivitamin soft capsule batch 9018401, Start
[6] = Multivitamin soft capsule batch 9018802, 6 months
[7] = Multivitamin soft capsule batch 9018802, Start
[8] = Multivitamin soft capsule batch GD 06 0045, 6 months
[9] = Multivitamin soft capsule batch GD 06 0045, Start

Compound	amount of active compound present [1, 4] [mg/capsule]	amount of active compound present, % of start [1, 4] [%]	amount of active compound present [1, 5] [mg/capsule]	amount of active compound present, % of start [1, 5] [%]	amount of active compound present [2, 6] [mg/capsule]	amount of active compound present, % of start [2, 6] [%]	amount of active compound present [2, 7] [mg/capsule]	amount of active compound present, % of start [2, 7] [%]	amount of active compound present [3, 8] [mg/capsule]	amount of active compound present, % of start [3, 8] [%]	amount of active compound present [3, 9] [mg/capsule]	amount of active compound present, % of start [3, 9] [%]
O=C1O[C@H]([C@@H](O)CO)C(O)=C1O [Ascorbic acid]	159	76	209	100	210	99	213	100	115.0	95	120.5	100
O=C(O)CCCC[C@@H]1SC[C@@H]2NC(=O)N[C@@H]21 [Biotin]									0.185	105	0.176	100
CC(C)(CO)[C@@H](O)C(=O)NCCC(=O)[O-].CC(C)(CO)[C@@H](O)C(=O)NCCC(=O)[O-].[Ca+2] [Calcium panthotenate]									14.9	96	15.6	100
CC(C)(CO)[C@@H](O)C(=O)NCCCO [Dexpanthenol]	9.7	72	13.5	100	12.8	96	13.3	100				
Nc1nc2ncc(CNc3ccc(C(=O)N[C@@H](CCC(=O)O)C(=O)O)cc3)nc2c(=O)[nH]1 [Folic acid]	0.57	92	0.62	100	0.520	87	0.60	100	0.603	104	0.581	100
NC(=O)c1cccnc1 [Nicotinamide]									20.1	98	20.6	100
Cyanocobalamine	0.171	86	0.199	100	0.173	82	0.21	100	0.0158	97	0.0163	100

Further lines, results first:

amount of active compound present [1, 4] [mg/capsule]	amount of active compound present, % of start [1, 4] [%]	amount of active compound present [1, 5] [mg/capsule]	amount of active compound present, % of start [1, 5] [%]	amount of active compound present [2, 6] [mg/capsule]	amount of active compound present, % of start [2, 6] [%]	amount of active compound present [2, 7] [mg/capsule]	amount of active compound present, % of start [2, 7] [%]	amount of active compound present [3, 8] [mg/capsule]	amount of active compound present, % of start [3, 8] [%]	amount of active compound present [3, 9] [mg/capsule]	amount of active compound present, % of start [3, 9] [%]	Compound
								3.39	94	3.60	100	Cc1ncc(CO)c(CO)c1O.Cl [Pyridoxine*HCL]
								2.23	107	2.09	100	Cc1cc2nc3c(=O)[nH]c(=O)nc-3n(C[C@H](O)[C@H](O)[C@H](O)CO)c2cc1C [Riboflavin]
17.1	87	19.7	100	19.3	98	19.6	100					Cc1ncc(C[n+]2csc(CCO)c2C)c(N)n1.Cl.[Cl-] [Thiamine*HCL]
								19.8	99	20.0	100	CC(=O)Oc1c(C)c(C)c2c(c1C)CCC(C)(CCC[C@H](C)CCC[C@H](C)CCCC(C)C)O2 (some centres unmarked) [Tocopherol acetate]
								2.0	87	2.3	100	CC1=C(/C=C/C(C)=C/C=C/C(C)=C/C=C/C=C(C)/C=C/C=C(C)/C=C/C2=C(C)CCCC2(C)C)C(C)(C)CCC1 [β-Carotene]
